The test system of one series is kidney allograft. The experiment in a line: Chronic allograft rejection, rat kidney allograft model (DA to Lewis). The format is in vivo. The procedure:
The kidney of a male DA (RTI^a) rat is orthotopically transplanted into a male Lewis (RTI^1) recipient. In total 24 animals are transplanted. All animals are treated with cyclosporine A at 7.5 mg/kg/day per as for 14 days starting on the day of transplantation, to prevent acute cellular rejection. Contralateral nephrectomy is not performed. Each experimental group treated with a distinct dose of a compound of formula I or placebo comprises six animals.
Starting at day 53-64 after transplantation, the recipient animals are treated per os for another 69-72 days with a compound of formula I or receive placebo. At 14 days after transplantation animals are subjected to graft assessment by magnetic resonance imaging (MRI) with perfusion measurement of the kidneys (with comparison of the grafted kidney and the own contralateral kidney). This is repeated at days 53-64 after transplantation and at the end of the experiment. The animals are then autopsied. Rejection parameters such as MRI score, relative perfusion rate of the grafted kidney and histologic score of the kidney allograft for cellular rejection and vessel changes are determined and statistically analyzed. Administration of a compound of formula I, e.g. Compound A, at a dose of 0.5 to 2.5 mg/kg in this rat kidney allograft model yields a reduction in all above mentioned rejection parameters.

For the next series, the system named is aorta allograft. The experiment in a line: Aorta transplantation in the rat (DA to Lewis). As to conditions: per os in microemulsion, 2.5 mg/kg/day for 7 weeks and 0.63-5.0 mg/kg/day for 11 weeks. It is filed as in vivo. Here is the method:
These include infiltration into the adventitia of mononuclear cells (lymphocytes, macrophages, some plasma cells), and thickening of the intima.
Donor aorta between the branch of the renal artery and the start of the caudal mesenteric aorta, about 1 cm in length, is harvested from a male DA (RTI^a) rat and transplanted orthotopically in a male Lewis (RTI^1) rat. Weekly after transplantation, the body weight is recorded. At autopsy, the graft with part of the aorta of the recipient just above and below the transplant is removed. It is perfused ex vivo with phosphate-buffered saline supplemented with 2% paraformaldehyde and 2.5% glutaraldehyde for about 2 minutes, then for 24 hours fixed by immersion fixation in the same solution, and thereafter fixed in 4% buffered formalin. Pieces of the graft are embedded in paraffin, in such a way that both a transversal section and a longitudinal section is made of the grafted aorta and the recipient's own aorta.
Sections of 4 μm thickness are stained by hematoxylin-eosin, elastica-von-Gieson and periodic-acid-Schiff. Apart from conventional light microscopy, images are recorded by confocal laser scanning microscopy. From each section, four areas are scanned, and from each area the thickness of the intima and intima+media is measured at five locations. […]

The next series has as its system carotid artery. In words: Angioplasty, balloon catheter injury of the left common carotid artery. The settings on record: for inhibition of neointima formation: day -3 to day +14. The format is in vivo, RoRo rats. The procedure:
Studies on angioplasty are done in the model of balloon catheter injury: Balloon catheterization is performed on day 0, essentially as described by Powell et al. (1989). Under Isofluorane anaesthesia, a Fogarty 2 F catheter is introduced into the left common carotid artery via the external carotid and inflated (distension≈10 μl H2O). The inflated balloon is withdrawn along the length of the common carotid three times, the latter two times whilst twisting gently to obtain a uniform de-endothelialization. The cathethcr is then removed, a ligature placed around the external carotid to prevent bleeding and the animals allowed to recover.
2 groups of 12 RoRo rats (400 g. approximately 24 weeks old) are used for the study: one control group and one group receiving the compound of formula I. The rats are fully randomized during all handling, experimental procedures and analysis.
The compound to be tested is administered p.o. (gavage) starting 3 days before balloon injury (day −3) until the end of the study, 14 days after balloon injury (day +14). Rats are kept in individual cages and allowed food and water ad libidum.
The rats are then anaesthetized with Isofluorane, a perfusion catheter inserted through the left ventricle and secured in the aortic arch, and an aspiration cannula inserted into the right ventricle. […] The perfusion pressure is 150 mmHg at the tip of the cannula (≈100 mmHg in the carotid artery), as determined in a preliminary experiment by introducing a cannula attached to a pressure transducer into the external carotid). […]
Sections 1-2 μm thick are cut from the middle section of each carotid with a hard metal knife on a rotary microtome and stained for 2 min with Giemsa stain. About 5 sections from each carotid are thus prepared and the cross-sectional area of the media, neointima and the lumen morphometrically evaluated by means of an image analysis system (MCID, Toronto, Canada).

A further series has as its system hamster heart xenograft. In words: In vivo heart xenotransplantation (hamster-to-rat). The source says:
The hamster-into-rat xenograft combination is a so-called difficult concordant combination. […] This is visualized in histology by destruction of blood vessels, exsudation and extravasation of erythrocytes, and influx by polymorpho- nuclear granulocytes: often there are signs of hemorrhage and thrombosis. […] This is visualized in histology by influx of mononuclear cells, including lymphocytes, lymphoblastoid cells, and macrophages, and destruction of the myocyte parenchyma. The inhibition of cellular rejection requires more immuno-suppression than that of allografts. Congenitally athymic (mu/mu) rats lack a competent (thymus-dependent) cellular immune system and generally are unable to reject allografts.
The graft is monitored daily by palpation of the abdomen. Rejection is concluded in case of cessation of heart beat. Animals are weighed weekly. In the present series of experiments, the endpoint is set to 28 days. Animals are subjected to autopsy; apart from the graft, weight and histology is assessed for thymus, spleen, liver, seminal vesicles and testes. Blood is taken and processed to serum for the determination of cytolytic anti-hamster erythrocyte antibody and hemolytic complement activity.

Series [1] in a line: 4-week toxicity study in rats. The format is in vivo. Here is the method:
(§1) Compounds of formula I are well tolerated at dosages required for use in accordance with the present invention. For example, the NTEL for Compound A in a 4-week toxicity study is 0.5 mg/kg/day in rats and 1.5 mg/kg/day in monkeys.

The nature of series [2]: 4-week toxicity study in monkeys. The format is in vivo. Here is the method: as §1
Where [3] appears, read: 2.5 mg/kg/day per os, vs placebo group.

For the compound `CO[C@H]1C[C@@H]2CC[C@@H](C)[C@@](O)(O2)C(=O)C(=O)N2CCCC[C@H]2C(=O)O[C@H]([C@H](C)C[C@@H]2CC[C@@H](OCCO)[C@H](OC)C2)CC(=O)[C@H](C)/C=C(\C)[C@@H](O)[C@@H](OC)C(=O)[C@H](C)C[C@H](C)/C=C/C=C/C=C/1C` [Compound A, 40-O-(2-hydroxy)ethyl-rapamycin], the “MRI score of rejection” value with kidney allograft (setting [3]) is recorded as “significantly lower”. For the same compound, in the series on kidney allograft (setting [3]), the “histologic score for cellular rejection and vessel changes” value is on record as “significantly lower”. For the same compound, in the series on kidney allograft (setting [3]), the “reduction in perfusion rate assessed by MRI” value is listed as “significantly lower”. Besides, the “rejection parameters (MRI score, relative perfusion rate of the grafted kidney, histologic score for cellular rejection and vessel changes)” value in the series with kidney allograft (dose of 0.5 to 2.5 mg/kg per os, from day 53-64 after transplantation for 69-72 days) was “reduction”. In the series with aorta allograft, the graft infiltration result is “significantly inhibit”. The neointima formation result in the series with aorta allograft was “significantly inhibit”. The “inhibition of neointima formation” value in the series with carotid artery (0.5 mg/kg p.o. daily) is 50%; in the series on carotid artery (2.5 mg/kg p.o. daily), 75%. For the same compound, the intimal thickening result with carotid artery (p.o. day -3 to day +14, compared to the control animals) was “significantly less”. In addition, the graft survival result in the series on hamster heart xenograft (athymic recipients) and with hamster heart xenograft (euthymic recipients) was “prolonged graft survival” throughout. Moreover, the NTEL in series [1] worked out at 0.5 mg/kg/day; in series [2] it was 1.5 mg/kg/day.

(Values after US20120177690A1, “USE OF RAPAMYCIN DERIVATIVES IN VASCULOPATHIES AND XENOTRANSPLANTATION” (Novartis AG, priority 1996, published 2012).)
